Data on seven compounds can be found in patent publication US20220251092A1, “CASEIN KINASE 1EPSILON INHIBITOR, PHARMACEUTICAL COMPOSITION AND APPLICATION THEREOF” (HANGZHOU HEALZEN THERAPEUTICS CO., LTD., priority 2019, published 2022).

For data set [1], the target named is T1, CK1ε (Homo sapiens, UniProt P49674). The note with it: cited from earlier work.
Data set [2] deals with T1, CK1ε. The data set can be described thus: CK1ε kinase activity assay (Caliper, FAM-labelled polypeptide). The data set is classed as biochemical. Here is the method:
The in-vitro assay of inhibitory activity of the compound herein against CK1ε kinase was:
(1) preparation of 1× kinase basic buffer and stop buffer: • 1×kinase basic buffer: 50 mM HEPES, pH 7.5; and 0.0015% Brij-35; • stop buffer: 100 mM HEPES, pH 7.5; 0.015% Brij-35; 0.2% Coating Reagent #3; and 50 mM EDTA.
(2) preparation of the test compound: • a 50× (“n×” represents dilution factor, same hereafter) stock solution of the compound with DMSO (10 mM, DMSO) to obtain stock solution I for use; […] of stock solution I was placed in a 96-well plate, each compound sample was diluted by 5-fold serial dilution till 10 concentrations was obtained while ensuring 10 μl of drug solution in each well; meanwhile, 100 μl of DMSO was used as a blank control group and a negative control group without enzyme substrate; • a separate 96-well plate was prepared, and to 10 μl of the above compound,
90 μl of 1× kinase foundation buffer was added, mixed well for 10 min to obtain a mixture.

The next data set has as its system OCI-LY10 cells. The data set is described as follows: In-vitro anti-tumor activity, OCI-LY10 cells, CCK-8. The data set is classed as cell-based, human. The note with it: for IC50: Homo sapiens, OCI-LY10, 72h, CCK-8. Here is the method: The in-vitro anti-tumor activities of the synthesized compounds were determined using a diffuse large B-cell lymphoma (OCI-LY10) cell strain:
Drug preparation method: The drug was dissolved in DMSO to make a stock solution of 10 mM and diluted in a certain ratio to obtain 7 different concentrations (test concentration: 100×).
In vitro culture of tumor cells: The selected OCI-LY10 cells were incubated with a medium of IMDM+fetal bovine serum in a 5% CO2 cell culture incubator at 37° C., and were passaged when the cell density grew to 70-90% (adherent cells were passaged after digestion with Duck's EDTA) for later experiments as needed. Four thousand cells/200 μl/well were seeded in a 96-well plate and incubated overnight in a 5% CO2 cell incubator at 37° C. Two μl of the compounds were dispensed in each well at final concentrations of […], and incubation was performed together for 72h in a 5% CO2 cell incubator at 37° C. with DMSO (2%) as control. After 72h, 20 μl of CCK-8 solution was added and the plate was placed in a 5% CO2 cell culture incubator at 37° C. for 4h. Wells with the corresponding amounts of cell culture medium and CCK-8 solution but without cells were used as blank controls. The absorbance (OD values) was measured at 450 nm using an enzyme marker, and the obtained data were used to calculate the IC50.

The test system of the next data set is OCI-LY10 xenograft tumor. The data set can be described thus: In vivo pharmacodynamic study, OCI-LY10 subcutaneous xenograft in SCID mice. Further details: species or system SCID mouse. The note with it: combinations with 17a 6 mg/kg PO QD. Here is the method: OCI-LY10 cells were cultured in an IMDM medium containing 20% FBS and maintained in a 5% CO2 incubator at 37° C. with saturated humidity. OCI-LY10 cells of logarithmic phase were collected and resuspended in an IMDM basic medium containing 50% Matrigel, and the cell concentration was adjusted to 5×10^7/ml. Subcutaneous inoculation of 0.1 ml of the cell suspension was performed aseptically in the right dorsum of mice at a concentration of 5×10^6/0.1 ml/mouse. Once the tumor volume reached about 150 mm^3, the animals were randomly grouped according to tumor volume so that the difference in tumor volume between the groups was less than 10% of the mean value. The date of grouping was recorded as Day 0, and drug administration was started based on the body weight of the animals. During drug administration, body weight of certain animals decreased by more than 15% compared to Day 0 (BWL≥15%), drug administration was discontinued for these animals until their body weight recovered (BWL<15%). The body weight and tumor volume of the animals were measured twice a week during the experiment, and clinical signs were observed and recorded daily.
The efficacy in terms of tumor volume was evaluated by the relative tumor proliferation rate T/C ratio, and T/C (%) was calculated as TRTV/CRTV[…], where TRTV is the relative tumor volume (RTV) of the treatment group and CRTV is the RTV of the negative control group. The RTV was calculated as Vt/V0, where V0 is the tumor volume at the time of grouping and Vt is the tumor volume at each measurement. The drug is considered effective with T/CP≤40% according to NMPA guidelines.
The efficacy in terms of tumor weight was evaluated by TGI (tumor weight inhibition) values, TGI 0%=(TWC−TWT)/TWC×[…], where TWC is tumor weight of control group, and TWT is tumor weight of treatment group. The drug is considered effective with TGI≥58% according to NIH guidelines.

The next data set deals with Karpas299 cells. The data set can be described thus: In-vitro anti-tumor activity, Karpas299 cells, CellTiter-Glo. The data set is classed as cell-based. The note with it: Homo sapiens, KARPAS-299, Karpas299, 72h. On the procedure:
In-vitro anti-tumor activities of the synthesized compounds were determined using Human Non-Hodgkin's Ki-positive Large Cell Lymphoma (Karpas299) cell strain:
Drug preparation method: The drugs were dissolved in DMSO to make stock solutions of 10 mM and diluted in a certain ratio to obtain 7 different concentrations (test concentration: 100×).
In vitro culture of tumor cells: The selected Karpas299 cells were incubated in a 500 CO2 cell culture incubator at 37° C. using RPMI-1640^+ fetal bovine serum medium. Four thousand cells/100 μl/well were seeded in a 96-well plate and incubated overnight in a 500 CO2 cell incubator at 37° C. Five μl of the compounds were dispensed in each well at final concentrations of 10 μM, 2.5 μM, 0.625 μM, 0.15625 μM, 0.039063 μM, 0.0097656 μM and 0.0024414 μM, and incubation was performed together for 72h in a 5% CO2 cell incubator at 37° C. with DMSO (0.10%) as controls. After 72h, the CellTiter-Glo buffer and reaction substrate were taken out of the fridge and equilibrated to room temperature. The buffer was then poured into a brown bottle containing the substrate. The bottle was turned up and down so that the substrate powder was fully dissolved. […] A white sealing film was attached to the bottom of the well plate, and the chemiluminescence signal of each well was detected with an Enspire microplate reader. […]

The nature of data set [3]: Bioavailability study in rats. The data set is classed as in vivo, SD rats. The note with it: rat; for AUC(0-t) / Cmax / Tmax / bioavailability: Sprague-Dawley, plasma; for bioavailability: PO 10 mg/kg vs IV 1 mg/kg of II-A-7a. Here is the method: SD rats were used as the experimental animals, to which drugs of 10 mg/kg were administered by gavage and 1 mg/kg by tail intravenous injection. […] Whole blood (0.3 ml) was collected, 0.1 ml of plasma was separated by centrifugation at 2000 g for 10 min, and the samples were analyzed by LC-MS/MS.

Setting [4] is: Table 4, 100 mg/kg PO QD Day 0-38.
The mark [5] stands for this setting: Table 5, 50 mg/kg PO QD Day 0-38.

Where two headings read alike, the source gives them in different places.

A word on the IC50: it is the midpoint of a concentration-inhibition curve. By AUC(0-t) is commonly meant exposure summed from dosing to a finite time, without extrapolation to infinity. Low values mean low exposure, high ones high exposure. The Cmax is the maximum level reached in the sampled fluid or tissue. Usually Tmax stands for the time from dosing to the highest level. By bioavailability is commonly meant dose-corrected exposure relative to a reference, in per cent. A low value points to poor availability.

T1 sequence (P49674 whole entry): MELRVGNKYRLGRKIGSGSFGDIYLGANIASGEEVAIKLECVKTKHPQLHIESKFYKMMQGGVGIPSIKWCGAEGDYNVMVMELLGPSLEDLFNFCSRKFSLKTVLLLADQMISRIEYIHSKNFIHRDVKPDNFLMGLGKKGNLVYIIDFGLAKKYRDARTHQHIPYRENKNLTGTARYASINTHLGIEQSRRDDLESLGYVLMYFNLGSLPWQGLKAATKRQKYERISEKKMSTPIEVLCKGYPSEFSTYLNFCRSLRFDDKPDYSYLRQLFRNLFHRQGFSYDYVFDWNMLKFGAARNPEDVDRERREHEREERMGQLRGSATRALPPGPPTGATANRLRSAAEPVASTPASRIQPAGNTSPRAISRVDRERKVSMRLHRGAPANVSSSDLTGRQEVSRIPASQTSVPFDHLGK

For the compound `CC[C@@H](c1nc2cccc(F)c2c(=O)n1-c1ccccc1)n1nc(-c2ccc(OC(C)C)c(F)c2)c2c(N)ncnc21` [CUX-03166], the half-inhibitory concentration (IC50) at CK1ε [1] (literature values in WO2017079558A1, read-out: CK1ε (IC50)) is 81200 nM.

For `CC(C)Oc1ccc(-c2nn([C@@H](C)c3nc4cccc(F)c4c(=O)n3-c3ccccc3)c3ncnc(N)c23)cc1F` [CUX-031723], the 50% inhibitory concentration (IC50) on CK1ε [1] (WO2017079558A1, read-out: IC50 of CK1ε) was 9360 nM.

The compound `COc1ccc(-c2nn(C(C)c3nc4ccccc4c(=O)n3-c3ccccc3)c3ncnc(N)c23)c(F)c1F` (stereo not drawn) [II-A-1, 2-(1-(4-amino-3-(2,3-difluoro-4-methoxyphenyl)-1H-pyrazolo[3,4-d]pyrimidin-1-yl)ethyl)-3-phenylquinazolin-4(3H)-one] had an IC50 at CK1ε [2] of 164 nM. Also, the IC50 with OCI-LY10 cells (read-out: IC50) came to 142 nM. Further, in the data set on OCI-LY10 xenograft tumor (setting [4]), the “RTV Day 39” value turned out to be 2.45 ± 0.50, the “T/C (%) Day 39” value is listed as 35.40%, the “TGI (%)” value amounted to 63.91% and the “Tumor weight” value is 0.288 ± 0.064 g.

As to `COc1ccc(-c2nn([C@@H](C)c3nc4ccccc4c(=O)n3-c3ccccc3)c3ncnc(N)c23)c(F)c1F` [II-A-1a, (S)-2-(1-(4-amino-3-(2,3-difluoro-4-methoxyphenyl)-1H-pyrazolo[3,4-d]pyrimidin-1-yl)ethyl)-3-phenylquinazolin-4(3H)-one], it took 108 nM to reach half-maximal inhibition at CK1ε [2] (IC50). Moreover, the concentration for half-maximal inhibition (IC50) with OCI-LY10 cells (read-out: IC50) came out at 112 nM. In the data set with OCI-LY10 xenograft tumor (setting [5]), the “RTV Day 39” value turned out to be 1.69 ± 0.27, the “T/C (%) Day 39” value turned out to be 23.12%, the “TGI (%)” value came to 77.46% and the “Tumor weight” value was found to be 0.270 ± 0.043 g. Besides, in the data set with Karpas299 cells, the IC50 was found to be 988 nM.

Regarding `COc1ccc(-c2nn(C(C)c3nc4cccc(Cl)c4c(=O)n3-c3ccccc3)c3ncnc(N)c23)c(F)c1F` (stereo not drawn) [II-A-7, 2-(1-(4-amino-3-(2,3-difluoro-4-methoxyphenyl)-1H-pyrazolo[3,4-d]pyrimidin-1-yl)ethyl)-5-chloro-3-phenylquinazolin-4(3H)-one], half-maximal inhibition against CK1ε [2] (IC50) was put at 97 nM. In addition, the “fold increase of inhibitory activity against CK1ε” value at CK1ε [2] (compared to compound C) is given as 7.2 fold. The IC50 in the data set with OCI-LY10 cells (read-out: IC50) came out at 22 nM. Moreover, the 50% inhibitory concentration (IC50) in the data set with OCI-LY10 cells (read-out: IC50 value) worked out at 22 nM. Also, the “fold increase of OCI-LY10 proliferation inhibitory activity” value in the data set on OCI-LY10 cells (compared to compound C) was found to be 123 fold. In the data set on OCI-LY10 xenograft tumor (setting [4]), the “RTV Day 39” value came out at 2.23 ± 0.15, the “T/C (%) Day 39” value came out at 32.35%, the “TGI (%)” value is 66.29% and the “Tumor weight” value came to 0.269 ± 0.028 g.

Take `COc1ccc(-c2nn([C@@H](C)c3nc4cccc(Cl)c4c(=O)n3-c3ccccc3)c3ncnc(N)c23)c(F)c1F` [II-A-7a, (S)-2-(1-(4-amino-3-(2,3-difluoro-4-methoxyphenyl)-1H-pyrazolo[3,4-d]pyrimidin-1-yl)ethyl)-5-chloro-3-phenylquinazolin-4(3H)-one]: 45 nM corresponded to half-maximal inhibition at CK1ε [2] (IC50). Besides, in the data set on OCI-LY10 cells (read-out: IC50), the concentration for half-maximal inhibition (IC50) amounted to 10.2 nM. Moreover, in the data set with OCI-LY10 xenograft tumor (setting [5]), the “RTV Day 39” value is given as 2.11 ± 0.60, the “T/C (%) Day 39” value worked out at 28.86%, the “TGI (%)” value came out at 72.70% and the “Tumor weight” value came out at 0.327 ± 0.048 g. Also, in data set [3] (IV 1 mg/kg), the AUC(0-t) came to 7200 ng·h/mL and the peak concentration (Cmax) came out at 1520 ng/mL. Besides, in data set [3] (PO 10 mg/kg), the exposure AUC(0-t) was 5780 ng·h/mL, the Cmax was determined as 456 ng/mL and the Tmax is 6 h. This compound displayed a bioavailability in data set [3] of 8.02%. Moreover, in the data set on Karpas299 cells, the IC50 is 855 nM.

`COc1ccc(-c2nn([C@@H](C)c3nc4cccc(Cl)c4c(=O)n3-c3ccccc3)c3ncnc(N)c23)c(F)c1F.O=S(=O)(O)O` [II-D-6, (S)-2-(1-(4-amino-3-(2,3-difluoro-4-methoxyphenyl)-1H-pyrazolo[3,4-d]pyrimidin-1-yl)ethyl)-5-chloro-3-phenylquinazolin-4(3H)-one sulfate]: in data set [3] (PO 10 mg/kg), the exposure AUC(0-t) is 21500 ng·h/mL, the concentration peaked (Cmax) at 2130 ng/mL and the Tmax is 1.67 h. Further, in data set [3], the bioavailability is 29.8%. In data set [3] (salt vs compound in the free state (II-A-7a)), the increase in bioavailability came to 3.7 fold.
